Target: T1, endothelial lipase (EL) (Homo sapiens, UniProt Q9Y5X9)
T1 construct: transformed by RAGE technology (Athersys) to overexpress endogenous EL; endogenous in cells; conditioned medium used as the enzyme source
T1 sequence (Q9Y5X9 21-500): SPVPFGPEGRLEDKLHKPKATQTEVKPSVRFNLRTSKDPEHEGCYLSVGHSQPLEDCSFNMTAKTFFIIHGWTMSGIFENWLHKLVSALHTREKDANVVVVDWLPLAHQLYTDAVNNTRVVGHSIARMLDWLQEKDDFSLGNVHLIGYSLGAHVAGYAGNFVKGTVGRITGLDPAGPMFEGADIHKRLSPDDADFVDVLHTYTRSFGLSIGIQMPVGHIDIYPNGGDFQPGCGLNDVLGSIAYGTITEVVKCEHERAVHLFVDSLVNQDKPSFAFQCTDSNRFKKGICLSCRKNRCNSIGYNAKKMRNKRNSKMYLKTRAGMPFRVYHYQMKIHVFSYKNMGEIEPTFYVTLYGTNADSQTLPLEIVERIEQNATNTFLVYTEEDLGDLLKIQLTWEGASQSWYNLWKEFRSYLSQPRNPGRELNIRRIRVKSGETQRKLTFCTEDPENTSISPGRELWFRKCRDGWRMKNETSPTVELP
Experiment: Endothelial lipase (EL) enzymatic assay with fluorescent substrate A10070 in DMPG vesicles
Type: biochemical
Conditions: conditioned media from HT-1080 cells overexpressing endogenous EL, 20 min preincubation at 37° C.
Method: Endothelial lipase activity was measured using a fluorescent substrate, A10070, (Invitrogen, CA) doped into an artificial vesicle containing DMPG (Avanti Polar Lipids) as the excipient. Vesicles were prepared by combining 285 μL of 1 mM DMPG in a 1:1 mixture of MeOH and CHCl3 with 15 μL of 1 mM A10070 in a 1:1 mixture of MeOH and CHCl3. The mixture was dried under nitrogen and resuspended in 150 μL of 50 mM HEPES pH 8.0 buffer containing 100 mM NaCl and 0.2 mM EDTA. The sample was allowed to sit at rt for 15 min and then was sonicated 3×4 mins on ice with a Branson Sonicator using duty cycle 1. This preparation provides vesicles with a mole fraction of 0.05 for the FRET substrate.
The enzymatic assay was measured using white, opaque 96-well half area plates. Each well contained 60 μL of assay buffer (50 mM HEPES pH 8.0, 50 mM NaCl and 1 mM CaCl2) and 2 ul of a DMSO solution containing compound of interest. Conditioned media obtained from HT-1080 cells, which were transformed by RAGE technology (Athersys) to overexpress endogenous EL, was added and the reaction was allowed to incubate for 20 min at 37° C. with gentle agitation. The reaction was started by the addition of 20 μL of a 1:4 dilution of vesicles. The final total reaction volume was 100 μL. The reaction rates were measured on a Gemini plate reader with an excitation wavelength of 488 nm and a emission of 530 nm. Readings were taken every 20 seconds for 10 min with agitation between each reading. The slope of the linear portion of the readout was used to calculate the rate of the reaction.
The exemplified examples disclosed in the present invention were tested in the EL assay described above and found having EL inhibitory activity. A range of EL IC50 values of ≦10 μM (10000 nM) was observed.

| IC50 | Structure (SMILES) |
| --- | --- |
| 2 µM | Cc1nc2cc(OC[C@@H](C)NC(=O)c3[nH]c(=O)[nH]c(=O)c3N)ccc2s1 [Example 84, (R)-5-amino-N-(1-(2-methyl-benzo[d]thiazol-5-yloxy)propan-2-yl)-2,6-dioxo-1,2,3,6-tetrahydropyrimidine-4-carboxamide] |
| 0.223 µM | C[C@H](COc1ccc(Cl)c2c1CCC2)NC(=O)c1[nH]c(=O)[nH]c(=O)c1N [Example 65, (R)-5-amino-N-(1-(7-chloro-2,3-dihydro-1H-inden-4-yloxy)propan-2-yl)-2,6-dioxo-1,2,3,6-tetrahydropyrimidine-4-carboxamide] |
| 4.99 µM | C[C@H](COc1ccccc1-c1nnco1)NC(=O)c1[nH]c(=O)[nH]c(=O)c1N [Example 115, (R)-N-(1-(2-(1,3,4-oxadiazol-2-yl)phenoxy)propan-2-yl)-5-amino-2,6-dioxo-1,2,3,6-tetra-hydropyrimidine-4-carboxamide] |
| 0.509 µM | C[C@H](COc1ccc(Cl)cc1C(=O)c1ccccc1)NC(=O)c1[nH]c(=O)[nH]c(=O)c1N [Example 88, (R)-5-amino-N-(1-(2-benzoyl-4-chlorophenoxy)propan-2-yl)-2,6-dioxo-1,2,3,6-tetrahydropyrimidine-4-carboxamide] |
| 0.559 µM | C[C@H](COc1ccc(S(C)(=O)=O)cc1)NC(=O)c1[nH]c(=O)[nH]c(=O)c1N [Example 103, (R)-5-amino-N-(1-(4-(methylsulfonyl)phenoxy)pro-pan-2-yl)-2,6-dioxo-1,2,3,6-tetrahydropyrimidine-4-carboxamide] |
| 0.149 µM | Nc1c(C(=O)NCCCc2ccc(Cl)c(Cl)c2)[nH]c(=O)[nH]c1=O [Example 2, 5-amino-N-(3-(3,4-dichlorophenyl)propyl)-2,6-dioxo-1,2,3,6-tetrahydropyrimidine-4-carboxamide] |
| 0.011 µM | C[C@H](COc1c(Cl)cccc1Cl)NC(=O)c1[nH]c(=O)[nH]c(=O)c1N [Example 54, (R)-5-amino-N-(1-(2,6-dichloro-phenoxy)propan-2-yl)-2,6-dioxo-1,2,3,6-tetra-hydropyrimidine-4-carboxamide] |
| 1.39 µM | C[C@H](COc1ccc(Cl)cc1F)NC(=O)c1[nH]c(=O)[nH]c(=O)c1N [Example 72, (R)-5-amino-N-(1-(4-chloro-2-fluoro-phenoxy)propan-2-yl)-2,6-dioxo-1,2,3,6-tetrahydropyrimidine-4-carboxamide] |

The next lines start with the molecule.

| Structure (SMILES) | IC50 |
| --- | --- |
| Nc1c(C(=O)NCc2c[nH]nc2-c2ccccc2)[nH]c(=O)[nH]c1=O [Example 30, 5-amino-2,6-dioxo-N-((3-phenyl-1H-pyrazol-4-yl)methyl)-1,2,3,6-tetrahydropyrimidine-4-carboxamide] | 0.612 µM |
| Nc1c(C(=O)NCc2ccc(Oc3ccccc3)cc2)[nH]c(=O)[nH]c1=O [Example 32, 5-amino-2,6-dioxo-N-(4-phenoxybenzyl)-1,2,3,6-tetrahydropyrimidine-4-carboxamide] | 0.703 µM |
| Nc1c(C(=O)NCC2Cc3ccccc3C(c3ccccc3)C2)[nH]c(=O)[nH]c1=O (stereo not drawn) [Example 46, 5-amino-2,6-dioxo-N-((4-phenyl-1,2,3,4-tetrahydronaphthalen-2-yl)methyl)-1,2,3,6-tetrahydropyrimidine-4-carboxamide] | 0.207 µM |
| C[C@@H](NC(=O)c1[nH]c(=O)[nH]c(=O)c1N)c1cc(-c2cnn(Cc3ccccc3)c2)ccc1O [Example 143, (R)-5-amino-N-(1-(5-(1-benzyl-1H-pyrazol-4-yl)-2-hydroxyphenyl)ethyl)-2,6-dioxo-1,2,3,6-tetrahydro-pyrimidine-4-carboxamide] | 6.96 µM |
| Nc1c(C(=O)NCc2cccc(-n3cnc4ccccc43)c2)[nH]c(=O)[nH]c1=O [Example 28, N-(3-(1H-benzo[d]imidazol-1-yl)benzyl)-5-amino-2,6-dioxo-1,2,3,6-tetrahydropyrimidine-4-carboxamide] | 2.2 µM |
| Nc1c(C(=O)NC[C@H]2C[C@@H]2c2ccc(F)cc2)[nH]c(=O)[nH]c1=O [Example 29, 5-amino-N-(((1S,2S)-2-(4-fluorophenyl)cyclopropyl)methyl)-2,6-dioxo-1,2,3,6-tetrahydropyrimidine-4-carboxamide] | 7.41 µM |
| Nc1c(C(=O)NCC2CCc3nn(Cc4ccccc4)cc3C2)[nH]c(=O)[nH]c1=O (stereo not drawn) [Example 50, 5-amino-N-((2-benzyl-4,5,6,7-tetrahydro-2H-indazol-5-yl)methyl)-2,6-dioxo-1,2,3,6-tetrahydropyrimidine-4-carboxamide] | 2.48 µM |
| C[C@@H](NC(=O)c1[nH]c(=O)[nH]c(=O)c1O)c1cccc(-c2cnn(Cc3ccccc3)c2)c1 [Example 181, (R)-N-(1-(3-(1-benzyl-1H-pyrazol-4-yl)phenyl)ethyl)-5-hydroxy-2,6-dioxo-1,2,3,6-tetra-hydropyrimidine-4-carboxamide] | 0.01 µM |
| COc1ccc(CNc2c(C(=O)N[C@H](C)CCc3ccc(Cl)c(Cl)c3)[nH]c(=O)n(C)c2=O)cc1 [Example 171, (R)—N-(4-(3,4-Dichlorophenyl)butan-2-yl)-5-(4-methoxybenzylamino)-1-methyl-2,6-dioxo-1,2,3,6-tetrahydropyrimidine-4-carboxamide] | 0.358 µM |
| CC(CNC(=O)c1[nH]c(=O)[nH]c(=O)c1N)Oc1ccc(F)cc1 (stereo not drawn) [Example 15, 5-amino-N-(2-(4-fluorophenoxy)propyl)-2,6-dioxo-1,2,3,6-tetrahydropyrimidine-4-carboxamide] | 9.93 µM |
| C[C@@H](NC(=O)c1[nH]c(=O)[nH]c(=O)c1O)c1cccc(OCc2ccccc2)c1 [Example 182, (R)-N-(1-(3-(benzyloxy)phenyl)ethyl)-5-hydroxy-2,6-dioxo-1,2,3,6-tetrahydro-pyrimidine-4-carboxamide] | 0.01 µM |
| COc1cc(C)c(OC)c2c1CC(CNC(=O)c1[nH]c(=O)[nH]c(=O)c1N)CC2 (stereo not drawn) [Example 45, 5-amino-N-((5,8-dimethoxy-6-methyl-1,2,3,4-tetra-hydronaphthalen-2-yl)methyl)-2,6-dioxo-1,2,3,6-tetrahydropyrimidine-4-carboxamide] | 0.078 µM |
| Nc1c(C(=O)NCC2CCN(C(=O)c3ccccc3)C2)[nH]c(=O)[nH]c1=O (stereo not drawn) [Example 44, 5-amino-N-((1-benzoylpyrrolidin-3-yl)methyl)-2,6-dioxo-1,2,3,6-tetrahydropyrimidine-4-carboxamide] | 3.07 µM |
| Nc1c(C(=O)NCC2CCN(S(=O)(=O)c3ccc(Cl)c(Cl)c3)CC2)[nH]c(=O)[nH]c1=O [Example 37, 5-amino-N-((1-(3,4-dichloro-phenylsulfonyl)piperidin-4-yl)methyl)-2,6-dioxo-1,2,3,6-tetrahydropyrimidine-4-carboxamide] | 3.17 µM |
| CC(C)(C)OC(=O)N1CCN(c2cccc(CNC(=O)c3[nH]c(=O)[nH]c(=O)c3N)c2)CC1 [Example 33, tert-butyl 4-(3-((5-amino-2,6-dioxo-1,2,3,6-tetrahydro-pyrimidine-4-carboxamido)methyl)phenyl)piperazine-1-carboxylate] | 0.266 µM |
| C[C@@H](NC(=O)c1[nH]c(=O)[nH]c(=O)c1N)c1cccc(-c2ccn(Cc3ccccc3)n2)c1 [Example 136, (R)-5-amino-N-(1-(3-(1-benzyl-1H-pyrazol-3-yl)phenyl)ethyl)-2,6-dioxo-1,2,3,6-tetrahydro-pyrimidine-4-carboxamide] | 0.02 µM |
| C[C@@H](NC(=O)c1[nH]c(=O)[nH]c(=O)c1N)c1cccc(-c2cnn(Cc3cccc(C(N)=O)c3)c2)c1 [Example 141, (R)-5-amino-N-(1-(3-(1-(3-carbamoylbenzyl)-1H-pyrazol-4-yl)phenyl)ethyl)-2,6-dioxo-1,2,3,6-tetrahydro-pyrimidine-4-carboxamide] | 0.883 µM |
| C[C@H](CCc1cccc(C(F)(F)F)c1)NC(=O)c1[nH]c(=O)[nH]c(=O)c1N [Example 1, (R)-5-Amino-2,6-dioxo-N-(4-(3-(trifluoromethyl)phenyl)butan-2-yl)-1,2,3,6-tetrahydropyrimidine-4-carboxamide] | 0.08 µM |
| C[C@@H](NC(=O)c1[nH]c(=O)[nH]c(=O)c1N)c1cccc(-c2cnn(Cc3nc4ccccc4s3)c2)c1 [Example 160, (R)-5-amino-N-(1-(3-(1-(benzo[d]thiazol-2-ylmethyl)-1H-pyrazol-4-yl)phenyl)ethyl)-2,6-dioxo-1,2,3,6-tetra-hydropyrimidine-4-carboxamide] | 0.369 µM |
